Source: patent US20220202739A1, “ENDOCANNABINOID MIMETIC AND ANTI-INFLAMMATORY COMPOUND CONTAINING COMPOSITIONS, METHODS OF PREPARATION AND USES THEREOF” (priority 2019, published 2022)

system: ITGB1; assay: Gene expression custom microarray, pooled keratinocyte line (Example 3): ITGB1; format: cell-based, human; settings: pooled keratinocytes, 20 ppm, 24 hr
Method: Cell cultures: Received and began culture of pooled keratinocyte line from Promocell (C-12006; Lot #448Z026). Cells were seeded into a 75 cm2 flask and 2 6 well dishes for expansion and exposure per manufacturer's protocol using Keratinocyte Growth Medium (C2011B), Keratinocyte Supplement Mix (C39016) and CaCl (C34005). 2 ml of prepared solution were added to each of the 6 wells and 7 ml was added to the 75 cm2 flask.
Experimental phase: When the appropriate quantity of cells were grown, they were detached as described above, but at the final step were seeded into each well of one or more 6 well dishes. Each well received 2 ml of the cells suspended in suspension so they were seeded equally. The dishes were returned to the incubator until 85-95% confluency is reached.
It was at this stage that all wells were rinsed in PBS after aspirating the growth media. The compound(s) to be tested were previously mixed into a suitable solvent (e.g., DMSO or ethanol) that can be diluted to the desired concentration of test compound (10 μl) in the culture wells without exceeding maximum solvent concentrations and adversely effecting cell viability, and mixed with Basal Keratinocyte Media. NOTE: Standard maximum levels of solvent are 0.1% for DMSO and 0.5% for ETOH. The concentration for each tested compound/natural extract is generally listed in the left-hand column of Table 4. For certain compositions (e.g., compositions 15 and 16), other concentrations were used and are noted in the body of Table 4.
Every 2 wells on the 6 well plate served as a biological replicate for the purposes of RNA isolation and genetic expression evaluations making each 6 well dish an n=3 for the test compound contained in the media. […]
At the end of the 24 hr time period, the plates were removed from the incubator, the test media aspirated, and the cells rinsed with PBS. […] Allow 1 minute for saturation of the membrane and then centrifuge for 2 minutes to complete the RNA elution. • Quantify the quantity of RNA and store at −20 C° until use (no more than 1 month) […]

Row | Compound | ↑ITGB1 gene expression, fold increase or decrease vs untreated cells
1 | C=C(C)[C@@H]1CCC(C)=C[C@H]1c1c(O)cc(CCCCC)cc1O [CBD, cannabidiol, reference compound] | 1.8 fold
2 | CCCCCCCCCCCCCCCC(=O)NCCO [N-palmitoylethanolamide] | −4 fold
3 | CC(C)[C@]12O[C@H]1[C@@H]1O[C@]13[C@]1(O[C@H]1C[C@H]1C4=C(CC[C@@]13C)C(=O)OC4)[C@@H]2O [Triptolide] | −14.7 fold
